Data set [1] deals with JaK2/STAT3 signaling pathway. Description: JaK2/STAT3 phosphorylation and STAT3 translocation in LPS-induced BV-2 cells. In kind it is cell-based, murine. The conditions noted are these: 1 μg/ml LPS, 10, 20, 50 μM, 3 h. Here is the method:
BV2 cells were seeded on glass coverslips and treated with circumdatin D in the presence or absence of LPS for indicated time. After that, the cells were washed twice with PBS and fixed with cold 4% paraformaldehyde for 30 min. Then, the cells were permeabilized with 0.1% Triton X-100 for 10 min and blocked with 5% bovine serum albumin for 1 h. After incubation with primary antibodies overnight at 4°C, the cells were incubated with Alexa Fluor 488-conjugated secondary antibodies (Proteintech, USA) for 1 h at room temperature. Furthermore, Hochest 33342 was added to stain cell nuclei. Images were acquired and analyzed using a confocal microscope (Leica, Germany).
Total cell proteins were lysed using cell extraction buffer containing phenylmethylsulfonyl ﬂuoride and protease inhibitor cocktail. The cytosolic and nuclear extracts were collected using the Nuclear and Cytosolic extraction kit. The protein extracts were separated on SDS-PAGE and transferred to PVDF membranes (Millipore). The membrane was blocked with 5% nonfat milk for 1 h at room temperature, and incubated with indicated primary antibodies overnight at 4°C. After washing, the membrane was incubated with secondary antibodies conjugated to horseradish peroxidase (Proteintech, USA) at room temperature for 1 h. […] The relative optical densities were analyzed using the Image Master™ 2D Elite software.

Data set [2] deals with primary microglia cells. Description: MTT assay in primary microglia. The conditions noted are these: untreated and LPS-stimulated cells, 1–100 μM, 48 h. Type of data set: cell-based, Sprague Dawley rats. Here is the method:
(§1) Primary microglia were prepared from the cortical tissue of neonatal (1–3 d) Sprague Dawley rats as [Ni and Aschner (2010)] described and primary cortical neurons were isolated from embryos of pregnant Sprague Dawley rats of E-18 ([Zeng et al., 2012]). All experimental manipulations with the animals was reviewed and approved by the animal experimental ethics committee of Peking University. The animals used in the work were performed in accordance with the Animal Care and Use Guidelines of Peking University.
(§2) In vitro cytotoxicity was detected using the MTT assay. Cells were treated with different concentrations of circumdatins in the presence or absence of LPS for 48 h. Then, MTT reagent was added to each well and the plates were further incubated at 37°C for 4 h. The absorbance was read at 570 nm using a microplate spectrophotometer (Thermo Scientifics, USA).
(§3) Cell surviability was detected using the MTT assay. Cells were seeded in 96-well plates and incubated overnight, following which the cells were treated with different concentrations of circumdatins with or without 1µg/mL of LPS for indicated time. Then, the cells were subsequently cultured with MTT and incubated for 4 hours at 37°C. Thereafter, the purple formazan dye was dissolved in DMSO and the absorbance was measured at 570 nm.
Background: Tetrazolium dyes change colour on reduction, which living cells bring about.

A further data set concerns BV-2 cells. Description: MTT cytotoxicity / cell survivability in BV-2 cells. Type of data set: cell-based, murine. Particulars: 1 μg/ml LPS, doses 0–100 μM, 48 h. Here is the method:
as §2, §3

Data set [3] has as its system primary microglia cells. Description: NO, TNF-α and IL-1β production in LPS-induced primary microglia. Particulars: 1.0 μg/ml LPS, 10, 20, 50 μM. Type of data set: cell-based, Sprague Dawley rats. Here is the method: as §1
The NO levels in culture media was determined using a Griess method. Cells were treated with different concentrations of circumdatins in the presence or absence of LPS for 24 h. After that, the supernatant fraction of the culture media was collected and mixed with the same volume of Griess reagent (1% sulfanilamide/0.1% naphthyl ethylene diamine dihydrochloride/2% H3PO4). Then, the absorbance was measured at 540 nm using a microplate spectrophotometer (Thermo Scientifics, USA). The concentration of nitrite was calculated from a calibration curve obtained from standards sodium nitrite solutions.
Cells were treated with different concentrations of circumdatin D in the presence or absence of LPS for indicated time. […] The levels of TNF-α and IL-β in the supernatants were determined by ELISA kits according to the manufacturer's instructions.

For the next data set, the system named is C. elegans CL4176. Description: Paralysis assay in transgenic C. elegans CL4176. In kind it is in vivo, Caenorhabditis elegans. The conditions noted are these: 36 h after temperature upshift 16 to 25°C. Here is the method: The in vivo effects of circumdatin D on pro-inflammatory response and AChE activity were evaluated using C. elegans as animal model. Transgenic C. elegans CL4176 and E. coli OP50 were bought from the Caenorhabditis Genetics Center (University of Minnesota, Minneapolis, MN, USA). CL4176 strain become paralysis after up-shifting temperature from 16 to 25°C due to expressing human β-amyloid peptide in muscle cells. The nematodes were cultivated on nematode growth medium (NGM) plates (1.7% Agar, 0.3% NaCl, 0.25% peptone, 1 mM CaCl2, 1 mM MgSO4, 5 mg/L cholesterol, and 2.5 mM K2HPO4) with E. coli OP50 at 16°C. In paralysis assay, egg-synchronized CL4176 nematodes were incubated on solid NGM plates with E. coli OP50 at 16°C. When the age of the worms grew to L4 stage, nematodes were divided into four groups and exposed to appropriate concentrations of circumdatin D or vehicle control (0.4% DMSO) at 16 °C for 36 h. The temperature was then raised from 16 to 25°C, the number of paralyzed worms was counted under the microscope. The paralyzed worms were recognized for those with no response or only moved head when gently touched with a platinum wire. Each independent assay included three NGM plates with 30 worms for each one. Likewise, the AChE activity and RT-PCR assay was employed using similar conditions.
In paralysis assay, CL4176 worms were egg-synchronized onto fresh NGM plates containing OP50 bacteria at 16℃. To induce the transgene expression, the temperature raised from 16 to 25℃ and lasted until the end of the paralysis assay. The recording was performed at two hours interval typically after 24h at 25 °C until the majority of worm became paralyzed. The worms were considered as paralyzed if there was no response or they only moved their head when gently touched with a platinum wire. Each independent assay included three NGM plates with twenty worms in each one.

In data set [4] the test system is AChE in C. elegans CL4176. Description: AChE activity of C. elegans CL4176. Type of data set: in vivo, Caenorhabditis elegans. Particulars: CL4176 nematodes. Here is the method:
AChE activity of C. elegans was determined by the method as described ([Xin et al., 2013]). Briefly, approximately 1,000 nematodes with or without circumdatin D treatment were collected and then triturated mechanically in PBS (50 mM, pH 7.4) on ice. The lysate supernatant was collected by centrifugation and AChE activity in the supernatant was determined using modified Ellman method. The protein concentration was determined by BCA protein assay. AChE activity was expressed as U/mg proteins.

`COc1ccc2c(c1)C(=O)N1CCC[C@H]1c1nc3ccc(OC)cc3c(=O)n1-2` [circumdatin D]: the “LPS-induced phosphorylation of JaK2” value in data set [1] is “strongly reduced LPS-induced phosphorylation of JaK2”. For the same compound, the “phosphorylation and nuclear translocation of STAT3” value in data set [1] is “effectively inhibited the phosphorylation and translocation of STAT3”. Also, the “toxicity in primary microglial cultures (MTT)” value in the data set with primary microglia cells [2] is listed as “low toxicity”. In addition, the “cytotoxicity in the presence of LPS (MTT)” value with BV-2 cells is on record as “did not induce significant cellular death”. In addition, the “LPS-stimulated production of NO, TNF-α and IL-1β” value with primary microglia cells [3] was “significantly decreased the production of NO, TNF-α and IL-1β”. Moreover, the reduction of paralysis result in the data set with C. elegans CL4176 (CL4176, 50 μM) is listed as “about 24.9%”; in the data set on C. elegans CL4176 (CL4176, 100 μM), roughly 42.8%; in the data set on C. elegans CL4176 (CL4176, 200 μM), roughly 74.8%. Also, the “AChE activity elevated upon temperature upshift” value in data set [4] is “significantly attenuated these changes in a dose-dependent manner”.

These data come from PMC7261837, “Circumdatin D Exerts Neuroprotective Effects by Attenuating LPS-Induced Pro-Inflammatory Responses and Downregulating Acetylcholinesterase Activity In Vitro and In Vivo” (Frontiers in Pharmacology, 2020).
